# What was measured:
# AS-wt = test: SPR binding of aminoglycosides to decoding region A-site model AS-wt; parameters: species or system E. coli; conditions: for specificity for AS-wt over negative controls (in words): Example 5, HBS-buffer
# Protocol: The RNA binding properties of 100-800 were analyzed using a surface plasmon resonance based assay that was recently developed in these laboratories. This assay allows the determination of both affinity and specificity of small molecule-RNA interactions. For the analysis, the compounds were injected over a matrix containing RNA that was immobilized through a biotin tag and the equilibrium binding values were recorded at various concentrations.
# Non-linear curve fitting was then used to determine the values of the dissociation constants (KD). The specificity of binding, i.e. the ability to discriminate between different RNA sequences was evaluated by comparing the binding to the target sequence (AS-wt) and the negative control (AS-U1495A). The ratio of KD(AS-U1495A) to KD(AS-wt) was taken to be a representation of the specificity of the binding event.
# (§1) For the quantitative measurement of aminoglycoside binding to these sequences, we utilized our recently developed SPR-based assay. Biotinylated derivatives of all sequences were prepared by in vitro transcription in the presence of guanosine 5'-monophosphorothioate followed by alkylation with a biotin iodoacetamide derivative. The RNA conjugates were then immobilized onto streptavidin coated SPR-sensorchips for analysis.
# (§2) In the same manner as illustrated for paromomycin, a panel of aminoglycosides was screened and the results are compiled in the table of FIGS. 46 and 47. In addition to the naturally occuring aminoglycoside antibiotics, some of the compounds in FIG. 46 are synthetically derived, unnatural aminoglycosides. The number of independent determinations for each dissociation constant ranged from 1-3. […] All data were recorded under near physiological salt conditions (HBS-buffer: 150 mM NaCl, 10 mM HEPES, pH7.4, 3.4 mM EDTA) unless noted otherwise. Data points were taken at concentrations ranging from […]. Below this concentration range, surface transport limitations prevent the attainment of equilibrium.
# Plasmon resonance and antimicrobial testing for Example 4. Synthesis of the biotinylated RNA and surface plasmon resonance detected binding experiments were performed as described vida supra. Solution conditions: 150 mM NaCl, 10 mM HEPES (pH 7.4), 3.4 mM EDTA. KD determination from the binding curves.
# The fitting routine of the program kaleidagraph was used for all calculations. The starting values for a and b were set to 1 and 0 respectively. The number of KD values used in the fitting was adjusted depending on the observed range of equivalents bound but generally varied from 3 to 4.
# General Procedures for SPR Binding Studies done in Example 5. Samples were prepared by serial dilutions from stock solutions in RNase free microfuge tubes (Ambion) and were centrifuged at 14000 rpm for degassing. Unless otherwise noted, all binding studies were carried out using HBS buffer (Pharmacia Biosensor AB) which was used as obtained. All procedures for binding studies were automated as methods using repetitive cycles of sample injection and regeneration. Typically, buffer was injected in the first two cycles to establish a stable baseline value. Samples were injected at a flowrate of […] using either the KINJECT command. All aminoglycoside samples were injected from autoclaved 7 mm plastic vials that were capped with pierceable plastic crimp caps. To minimize carry over, samples were injected in order of increasing concentration. The running buffer was identical to the injection buffer. Expected values for the equilibrium response of one equivalent of analyte were calculated from the relative molecular weight of the analyte and the immobilized RNA ligand in each flowcells and adjusted with a correction factor of 0.76 which arises from the different molar refractive indices of RNA and the analyte. […]
# Neo16-bd = test: SPR binding of aminoglycosides to Neo16-bd aptamer
# Protocol: Conditions: 10 mM HEPES (pH 7.4), 0.1 mM EDTA and NaCl as indicated.
# The binding of aminoglycosides to RNA is likely to involve substantial ionic contributions and therefore should be strongly influenced by competing buffer ions. […] We studied the salt dependence of neomycin B binding to RBE3, RBE3-neg and Neo16-bd (FIG. 14) by varying the concentration of NaCl included in the injection buffer (10 mM HEPES, pH 7.4, 0.1 mM EDTA). […] This neomycin binding motif was obtained by in vitro selection under conditions of high ionic strength.
# To further improve our understanding of specific aminoglycoside recognition, we have also included an artificial aminoglycoside receptor that was evolved in vitro to recognize an aminoglycoside. A number of RNA aptamers for small molecules have been reported in recent years. Among them are aptamers that recognize the aminoglycosides tobramycin, lividomycin and kanamycin.
# For comparison, the corresponding values for AS-wt are also included.
# General Procedures for SPR Binding Studies done in Example 5. Samples were prepared by serial dilutions from stock solutions in RNase free microfuge tubes (Ambion) and were centrifuged at 14000 rpm for degassing. Unless otherwise noted, all binding studies were carried out using HBS buffer (Pharmacia Biosensor AB) which was used as obtained. All procedures for binding studies were automated as methods using repetitive cycles of sample injection and regeneration. Typically, buffer was injected in the first two cycles to establish a stable baseline value. Samples were injected at a flowrate of […] using either the KINJECT command. All aminoglycoside samples were injected from autoclaved 7 mm plastic vials that were capped with pierceable plastic crimp caps. To minimize carry over, samples were injected in order of increasing concentration. The running buffer was identical to the injection buffer.
# AS-U1406A = test: SPR binding of aminoglycosides to AS-U1406A; conditions: Example 5, HBS-buffer
# Source text: To understand the specificity of ribosomal RNA recognition by the various aminoglycosides, we decided to investigate their binding to AS-wt and compare the results to a series of control mutants which have likewise been characterized by footprinting (FIG. 44). These include the negative controls AS-U1495A, AS-DA1492 and AS-res. […] In AS-U1495A a critical hydrogen bond acceptor which interacts with N1 of the 2-deoxystreptamine ring has been removed. The mutation DA1492 destroys the bulged pocket in which paromomycin ring II (the glucose ring) is positioned. Finally, in the AS-res mutant the G1491:C1409 base pair which creates the floor of the binding pocket is disrupted by replacing it with a C1491:U1409 mismatch. Breaking up this critical base pair in the E. coli 16S ribosomal RNA causes resistance to a broad range of aminoglycosides. In contrast to these negative controls, the mutant hairpin AS-U1406A still contains all necessary elements for specific aminoglycoside recognition and binds paromomycin with wild type specificity.
# as §1, §2
# General Procedures for SPR Binding Studies done in Example 5. Samples were prepared by serial dilutions from stock solutions in RNase free microfuge tubes (Ambion) and were centrifuged at 14000 rpm for degassing. Unless otherwise noted, all binding studies were carried out using HBS buffer (Pharmacia Biosensor AB) which was used as obtained. All procedures for binding studies were automated as methods using repetitive cycles of sample injection and regeneration. Typically, buffer was injected in the first two cycles to establish a stable baseline value. Samples were injected at a flowrate of […] using either the KINJECT command. All aminoglycoside samples were injected from autoclaved 7 mm plastic vials that were capped with pierceable plastic crimp caps. To minimize carry over, samples were injected in order of increasing concentration. The running buffer was identical to the injection buffer. Expected values for the equilibrium response of one equivalent of analyte were calculated from the relative molecular weight of the analyte and the immobilized RNA ligand in each flowcells and adjusted with a correction factor of 0.76 which arises from the different molar refractive indices of RNA and the analyte. Binding constants were calculated by fitting the recorded binding isotherm (equivalents bound vs, concentration) to a model with n independent binding constants using the fitting program provided in the program Kaleidagraph (Macintosh).
Compound,specificity for AS-wt over negative controls (in words) (AS-wt),binding to AS-U1406A mutant relative to AS-wt (in words) (AS-U1406A),also measured
CN[C@@H]1[C@@H](O[C@H]2O[C@H](CO)[C@@H](N)[C@H](O)[C@H]2O)OC2C[C@@H](N)[C@@H](O[C@H]3[C@H](O)[C@@H](O)[C@H](N)C[C@@H]3N)OC2[C@@H]1O (some centres unmarked) [Apramycin],only marginal if any specificity for AS-wt,,
"NC[C@H]1O[C@H](O[C@H]2[C@H](O[C@@H]3O[C@H](CO)[C@@H](O[C@H]4O[C@@H](CO)[C@@H](O)[C@H](O)[C@H]4O)[C@H]3O)[C@@H](O)[C@H](N)C[C@@H]2N)[C@H](N)[C@@H](O)[C@@H]1O [Compound 700, 2""',6""'-desamino-2""'-6""'-hydroxy neomycin B]",,,"RNA binding, affinity or specificity for AS-wt (in words) (AS-wt; Example 4): virtually the same RNA binding profile"
"NC[C@@H]1O[C@H](O[C@H]2[C@@H](O)[C@H](O[C@@H]3[C@@H](O)[C@H](N)C[C@H](N)[C@H]3O[C@H]3O[C@H](CN)[C@@H](O)[C@H](O)[C@H]3N)O[C@@H]2CO)[C@H](O)[C@@H](O)[C@@H]1O [Compound 800, 2""'-desamino-2""'-hydroxy neomycin B]",,,"Kd (Neo16-bd; HBS-buffer, read-out: Kd, Neo16bd): < 0.01 µM; affinity improvement for AS-wt in relation to 700 (AS-wt): 40 fold"
CN[C@H]1C[C@@H](N)[C@H](O)[C@@H](O[C@@H]2O[C@H](CO)[C@H](O)[C@@H]3OC4(O[C@H]23)O[C@H]([C@@H](N)CO)[C@H](O)[C@H](O)[C@H]4O)[C@@H]1O (some centres unmarked) [Hygromycin B],none,,
NCC1OC(OC2C(N)CC(N)C(OC3OC(CO)C(O)C(N)C3O)C2O)C(O)C(O)C1O (centres unmarked) [Kanamycin A],only very moderate specificity for AS-wt,not increased in the U1406A mutant relative to AS-wt but rather decreased,
NC[C@H]1O[C@H](O[C@H]2[C@H](O)[C@@H](O[C@H]3O[C@H](CO)[C@@H](O)[C@H](N)[C@H]3O)[C@H](N)C[C@@H]2N)[C@H](N)[C@@H](O)[C@@H]1O [Kanamycin B],only very moderate specificity for AS-wt,not increased in the U1406A mutant relative to AS-wt but rather decreased,
N[C@H]1[C@@H](O[C@H]2[C@H](O)[C@@H](O)[C@H](N)C[C@@H]2N)O[C@H](CO)[C@@H](O)[C@@H]1O [Paromamine],substantial decrease in binding to AS-wt and a loss of most specificity,,
NC[C@H]1O[C@H](O[C@H]2[C@H](O[C@@H]3O[C@H](CO)[C@@H](O)[C@H]3O)[C@@H](O)[C@H](N)C[C@@H]2N)[C@H](N)[C@@H](O)[C@@H]1O [Ribostamycin],low,only weakly enhanced,binding to Neo16bd (in words) (Neo16-bd): bound more tightly to the aptamer than paromomycin; lower affinity for AS-wt relative to neamine (AS-wt): 3 fold
NC[C@H]1O[C@H](O[C@H]2[C@H](O)[C@@H](O[C@H]3O[C@H](CO)[C@@H](O)[C@H](N)[C@H]3O)[C@H](N)C[C@@H]2N)[C@H](N)C[C@@H]1O [Tobramycin],only very moderate specificity for AS-wt,not increased in the U1406A mutant relative to AS-wt but rather decreased,
Butirosin,only moderate specificity for AS-wt,significantly enhanced,
Gentamycin,only very moderate specificity for AS-wt,not increased in the U1406A mutant relative to AS-wt but rather decreased,

# — patent US6120997A, “Nucleic acid binders having an hydroxyamine motif” (The Scripps Research Institute, priority 1998, dated 2000)
